In patent publication US6979686B1, “Substituted pyrazoles as p38 kinase inhibitors” (Pharmacia Corporation, priority 2001, dated 2005):

The compounds below were run against T1, human p38 kinase alpha (Homo sapiens, UniProt Q16539) (assay: p38 kinase in vitro assay, phosphorylation of biotinylated PHAS-I with 32P-ATP). Conditions: @ 1.0 uM.
T1 construct: GST (N, cleaved yes); made in house; host or cells: E. coli DH10B
Type: biochemical

T1 sequence (Q16539 whole entry): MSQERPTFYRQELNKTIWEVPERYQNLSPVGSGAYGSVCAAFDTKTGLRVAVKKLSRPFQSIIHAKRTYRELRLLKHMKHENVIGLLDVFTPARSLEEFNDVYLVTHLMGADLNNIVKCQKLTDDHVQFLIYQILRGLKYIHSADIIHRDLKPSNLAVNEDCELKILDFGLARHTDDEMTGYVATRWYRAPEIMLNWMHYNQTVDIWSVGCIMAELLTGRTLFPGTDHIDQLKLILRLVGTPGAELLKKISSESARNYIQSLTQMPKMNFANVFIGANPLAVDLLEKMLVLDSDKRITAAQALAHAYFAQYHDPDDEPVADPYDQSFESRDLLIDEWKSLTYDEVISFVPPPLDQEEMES

| P38 alpha kinase % inhib @ conc. | P38 alpha kinase % inhib @ conc. (uM) | Structure (SMILES) |
| --- | --- | --- |
| 76.0% @ | – | CN(C(=O)NCCCc1[nH]nc(-c2ccc(F)cc2)c1-c1ccncc1)c1ccccc1 [Example B-1214] |
| 86.0% @ | – | O=C(NCCCc1[nH]nc(-c2ccc(F)cc2)c1-c1ccncc1)Nc1ccccc1F [Example B-1215] |
| – | 85.0% @ | O=C(NCCc1[nH]nc(-c2ccc(F)cc2)c1-c1ccncc1)C1CC1 [Example B-0989] |
| 84.0% @ | – | O=S(=O)(NCCCc1[nH]nc(-c2ccc(F)cc2)c1-c1ccncc1)c1cccs1 [Example B-1203] |
| – | 69.0% @ | CCOC(=O)CCNC(=O)NCCc1[nH]nc(-c2ccc(F)cc2)c1-c1ccncc1 [Example B-0947] |
| – | 78.0% @ | COCC(=O)NCCCc1[nH]nc(-c2ccc(F)cc2)c1-c1ccncc1 [Example B-1171] |
| – | 72.0% @ | O=C(NCCc1[nH]nc(-c2ccc(F)cc2)c1-c1ccncc1)C1CCC1 [Example B-0988] |
| – | 72.0% @ | COc1ccc(NC(=O)NCCc2[nH]nc(-c3ccc(F)cc3)c2-c2ccncc2)cc1 [Example B-1047] |
| – | 87.0% @ | O=S(=O)(NCCc1[nH]nc(-c2ccc(F)cc2)c1-c1ccncc1)c1cccs1 [Example B-1026] |

Same assay, conditions: @ 1.0 uM; read-out: P38 alpha kinase % inhib @ conc.

| inhibition at 1 µM | Structure (SMILES) |
| --- | --- |
| 94% | O=C(NCc1[nH]nc(-c2ccc(F)cc2)c1-c1ccncc1)C(c1ccccc1)c1ccccc1 [Example B-0032] |
| 91% | O=C(NCc1[nH]nc(-c2ccc(F)cc2)c1-c1ccncc1)c1cc2ccccc2s1 [Example B-0029] |
| 70% | COc1ccc(OC)c(CC(=O)NCc2[nH]nc(-c3ccc(F)cc3)c2-c2ccncc2)c1 [Example B-0013] |

Same assay, conditions: @ 10.0 uM

| P38 alpha kinase % inhib @ conc. | P38 alpha kinase IC50, uM or % inhib @ conc. (uM): % inhib | Structure (SMILES) |
| --- | --- | --- |
| 75.0% @ | – | CCCCC(C)NC(=O)Cn1nc(-c2ccc(F)cc2)c(-c2ccncc2)c1C (stereo not drawn) [Example B-2319] |
| – | 86.0% 2 | Cc1c(-c2ccncc2)c(-c2ccc(F)cc2)nn1CC(=O)Nc1ccccc1F [Example B-2432] |
| 84.0% @ | – | Cc1c(-c2ccncc2)c(-c2ccc(F)cc2)nn1CC(=O)NC1CCN(CCc2c[nH]c3ccccc23)CC1 [Example B-2355] |
| – | 81.0% @ | Cc1c(-c2ccncc2)c(-c2ccc(F)cc2)nn1CC(=O)Nc1ccc(C(F)(F)F)cc1 [Example B-2439] |
| – | 85.0% @ | Cc1c(-c2ccncc2)c(-c2ccc(F)cc2)nn1CC(=O)Nc1ccccc1 [Example B-2416] |
| – | 75.0% @ | Cc1c(-c2ccncc2)c(-c2ccc(F)cc2)nn1CC(=O)Nc1cc(F)cc(F)c1 [Example B-2438] |
| 74.0% @ | – | Cc1c(-c2ccncc2)c(-c2ccc(F)cc2)nn1CC(=O)NC(C)c1cccc2ccccc12 (stereo not drawn) [Example B-2331] |

Same assay, conditions: @ 100.0 uM

| P38 alpha kinase % inhib @ conc. | Structure (SMILES) |
| --- | --- |
| 73.0% @ | Cc1c(-c2ccncc2)c(-c2ccc(F)cc2)nn1CC(=O)N1CCCC1 [Example B-2379] |

Same assay, conditions: Table 8; 1% DMSO; read-out: p38α Kinase Assay IC50

| IC50 | Structure (SMILES) |
| --- | --- |
| 21 nM | Fc1ccc(-c2[nH]ncc2-c2ccnc(Nc3ccccc3F)n2)cc1 [Example A-325, N-(2-fluorophenyl)-4-[3-(4-fluorophenyl)-1H-pyrazol-4-yl]-2-pyrimidinamine] |
| 36 nM | CN1CCN(Cc2n[nH]c(-c3ccc(F)cc3)c2-c2ccncc2)CC1 [A-313, Step 3, 1-[[5-(4-fluorophenyl)-4-(4-pyridinyl)-1H-pyrazol-3-yl]methyl]-4-methylpiperazine] |

Same assay, conditions: activated human p38 kinase alpha, PHAS-I substrate, 50 μM unlabeled ATP; read-out: p38 kinase IC50

| IC50 | Structure (SMILES) |
| --- | --- |
| 900 nM | CCOC(=O)CCc1[nH]nc(-c2ccc(Cl)cc2)c1-c1ccncc1 [Example A-53] |

Same assay, conditions: in vitro P38-alpha kinase inhibition; read-out: P38 alpha kinase IC50

| IC50 | Structure (SMILES) |
| --- | --- |
| 490 nM | CC(NC(=O)c1ccccn1)c1[nH]nc(-c2ccc(F)cc2)c1-c1ccncc1 (stereo not drawn) [Example B-0556] |
| 870 nM | CN(C)C(=O)NC(Cc1ccccc1)c1[nH]nc(-c2ccc(F)cc2)c1-c1ccncc1 (stereo not drawn) [Example B-0729] |
| 1230 nM | CC(NC(=O)c1ccc(F)cc1)c1[nH]nc(-c2ccc(F)cc2)c1-c1ccncc1 (stereo not drawn) [Example B-0533] |
| 1220 nM | CC(NC(=O)NCCc1ccccc1)c1[nH]nc(-c2ccc(F)cc2)c1-c1ccncc1 (stereo not drawn) [Example B-0593] |
| < 100 nM | C[C@@H](NS(=O)(=O)c1ccc(F)c(Cl)c1)c1[nH]nc(-c2ccc(F)cc2)c1-c1ccncc1 [Example B-0466] |
| < 100 nM | O=S(=O)(NCCc1[nH]nc(-c2ccc(F)cc2)c1-c1ccncc1)c1ccc(-c2ccon2)s1 [Example B-1113] |
| 1240 nM | O=C(NC(Cc1ccccc1)c1[nH]nc(-c2ccc(F)cc2)c1-c1ccncc1)C1CCC1 (stereo not drawn) [Example B-0836] |
| 1710 nM | O=C(NCCc1[nH]nc(-c2ccc(F)cc2)c1-c1ccncc1)c1cc(C(F)(F)F)ccc1F [Example B-1134] |
| 510 nM | O=C(NC(Cc1ccccc1)c1[nH]nc(-c2ccc(F)cc2)c1-c1ccncc1)N1CCOCC1 (stereo not drawn) [Example B-0727] |
| 2100 nM | CC(C)COC(=O)NC(Cc1ccccc1)c1[nH]nc(-c2ccc(F)cc2)c1-c1ccncc1 (stereo not drawn) [Example B-0858] |
| 800 nM | O=C(NC(Cc1ccccc1)c1[nH]nc(-c2ccc(F)cc2)c1-c1ccncc1)N1CCOCC1 (stereo not drawn) [Example B-0772] |
| 890 nM | Cc1ccccc1C(=O)NC(C)c1[nH]nc(-c2ccc(F)cc2)c1-c1ccncc1 (stereo not drawn) [Example B-0669] |
| 4100 nM | CC(NC(=O)NC(Cc1ccccc1)c1[nH]nc(-c2ccc(F)cc2)c1-c1ccncc1)c1ccccc1 (stereo not drawn) [Example B-0739] |
| 1550 nM | CC(=O)OC(C)C(=O)NC(C)c1[nH]nc(-c2ccc(F)cc2)c1-c1ccncc1 (stereo not drawn) [Example B-0542] |
| 3620 nM | CC(NC(=O)c1ccc(I)cc1)c1[nH]nc(-c2ccc(F)cc2)c1-c1ccncc1 (stereo not drawn) [Example B-0540] |
| 920 nM | O=C(NC(Cc1ccccc1)c1[nH]nc(-c2ccc(F)cc2)c1-c1ccncc1)C1CCCN1 (stereo not drawn) [Example B-0750] |
| < 100 nM | CC(NS(=O)(=O)c1ccc(Cl)cc1)c1[nH]nc(-c2ccc(F)cc2)c1-c1ccncc1 (stereo not drawn) [Example B-0610] |
| 450 nM | CC(NC(=O)c1cc(F)ccc1F)c1[nH]nc(-c2ccc(F)cc2)c1-c1ccncc1 (stereo not drawn) [Example B-0697] |
| 470 nM | CC(C)NC(=O)NC(Cc1ccccc1)c1[nH]nc(-c2ccc(F)cc2)c1-c1ccncc1 (stereo not drawn) [Example B-0723] |
| < 100 nM | CC(NS(=O)(=O)Cc1ccccc1)c1[nH]nc(-c2ccc(F)cc2)c1-c1ccncc1 (stereo not drawn) [Example B-0566] |
| 170 nM | Cc1cccc(C(=O)NCCc2[nH]nc(-c3ccc(F)cc3)c2-c2ccncc2)c1 [Example B-1143] |
| 9700 nM | O=C(NCc1ccccc1)NC(Cc1ccccc1)c1[nH]nc(-c2ccc(F)cc2)c1-c1ccncc1 (stereo not drawn) [Example B-0725] |
| 45 nM | CC(NS(=O)(=O)c1ccc2ccccc2c1)c1[nH]nc(-c2ccc(F)cc2)c1-c1ccncc1 (stereo not drawn) [Example B-0617] |
| 2580 nM | CC(NC(=O)c1cccnc1)c1[nH]nc(-c2ccc(F)cc2)c1-c1ccncc1 (stereo not drawn) [Example B-0554] |
| 58 nM | Cc1cccc(Cl)c1S(=O)(=O)NC(C)c1[nH]nc(-c2ccc(F)cc2)c1-c1ccncc1 (stereo not drawn) [Example B-0644] |
| 250 nM | Cc1cccc(S(=O)(=O)NC(C)c2[nH]nc(-c3ccc(F)cc3)c2-c2ccncc2)c1 (stereo not drawn) [Example B-0638] |
| 20000 nM | COc1ccc(NC(=O)NC(C)c2[nH]nc(-c3ccc(F)cc3)c2-c2ccncc2)cc1 (stereo not drawn) [Example B-0596] |
| 1890 nM | CNC(=O)CCC(NC(=O)Nc1ccc(OC)cc1OC)c1[nH]nc(-c2ccc(F)cc2)c1-c1ccncc1 (stereo not drawn) [Example B-0884] |
| 94 nM | O=S(=O)(NCCc1[nH]nc(-c2ccc(F)cc2)c1-c1ccncc1)c1ccc2ccccc2c1 [Example B-1103] |

Same assay, conditions: in vitro P38-alpha kinase; read-out: P38 alpha kinase IC50

| IC50 | Structure (SMILES) |
| --- | --- |
| 1180 nM | O=S(=O)(c1cccc(F)c1)N1CCC(c2[nH]nc(-c3ccc(F)cc3)c2-c2ccncc2)CC1 [Example B-1464] |
| 90 nM | CC(C)OC(=O)N1CCC(c2[nH]nc(-c3ccc(F)cc3)c2-c2ccncc2)CC1 [Example B-1425] |
| 950 nM | O=S(=O)(c1ccccc1Br)N1CCC(c2[nH]nc(-c3ccc(F)cc3)c2-c2ccncc2)CC1 [Example B-1458] |
| 1480 nM | O=S(=O)(NCCCc1[nH]nc(-c2ccc(F)cc2)c1-c1ccncc1)c1cc(Cl)c(Cl)s1 [Example B-1257] |
| 490 nM | O=S(=O)(NCCCc1[nH]nc(-c2ccc(F)cc2)c1-c1ccncc1)c1ccc2ccccc2c1 [Example B-1245] |
| 910 nM | Cc1c(-c2ccncc2)c(-c2ccc(F)cc2)nn1CC(=O)NCc1ccco1 [Example B-2282] |
| 40 nM | O=S(=O)(NCCCc1[nH]nc(-c2ccc(F)cc2)c1-c1ccncc1)c1cc(Cl)ccc1Cl [Example B-1243] |
| 430 nM | O=S(=O)(c1ccccc1Cl)N1CCC(c2[nH]nc(-c3ccc(F)cc3)c2-c2ccncc2)CC1 [Example B-1457] |
| 400 nM | O=C(NCCCc1[nH]nc(-c2ccc(F)cc2)c1-c1ccncc1)c1ccc(C(F)(F)F)cc1F [Example B-1337] |
| 810 nM | Cc1c(-c2ccncc2)c(-c2ccc(F)cc2)nn1CC(=O)NCc1ccccn1 [Example B-2281] |
| 97 nM | O=C(c1ccc(F)cc1F)N1CCC(c2[nH]nc(-c3ccc(F)cc3)c2-c2ccncc2)CC1 [Example B-1412] |
| 170 nM | O=C(c1cccc(Br)c1)N1CCC(c2[nH]nc(-c3ccc(F)cc3)c2-c2ccncc2)CC1 [Example B-1365] |
| 7180 nM | CCNC(=O)Cn1nc(-c2ccc(F)cc2)c(-c2ccncc2)c1C [Example B-2311] |
| < 100 nM | O=S(=O)(NCCCc1[nH]nc(-c2ccc(F)cc2)c1-c1ccncc1)c1cccc2cccnc12 [Example B-1248] |
| 660 nM | Cc1c(-c2ccncc2)c(-c2ccc(F)cc2)nn1CC(=O)NCCc1csc2ccccc12 [Example B-2308] |
| 13 nM | CS(=O)(=O)c1ccccc1S(=O)(=O)NCCCc1[nH]nc(-c2ccc(F)cc2)c1-c1ccncc1 [Example B-1294] |
| 270 nM | O=C(c1ccc(F)c(C(F)(F)F)c1)N1CCC(c2[nH]nc(-c3ccc(F)cc3)c2-c2ccncc2)CC1 [Example B-1408] |
